For one assay, the system named is infection. The conditions noted are these: mouse, in vivo; cited from earlier work.
The subject of the next assay is P-388 tumor cells. The assay can be described thus: Therapeutic test on mice with intraperitoneally transplanted P-388 tumor cells. It is filed as in vivo, mouse. The conditions noted are these: intraperitoneally once a day for two days. The method, then: To evaluate antitumor activity of the test compounds, the following therapeutic test was conducted.
P-388 tumor cells were transplanted into the abdominal cavity of a mouse. A test compound was intraperitoneally administered to the animal once a day for two days. The effect thus observed is expressed in ILS (%). [formula]

In assay [1] the test system is P-388 mouse leukemia cells. The assay can be described thus: Cytotoxic effect: 50% growth inhibition of P-388 cells. The conditions noted are these: P388, 72 h, read-out: IC₅₀.

In brackets after ≈: the same amount, converted by molar mass.

As for `COC(=O)C1(C)Nc2c(O)cc3c(c2C1=O)C(CO)CN3C(=O)c1cc2cc(OC)c(OC)c(OC)c2[nH]1` (stereo not drawn), the “therapeutic effect on infection” value with infection was “therapeutic effect on infection”.

As to `COC(=O)C1(C)Nc2c(OS(C)(=O)=O)cc3c(c2C1=O)C(COS(C)(=O)=O)CN3C(=O)c1cc2cc(OC)c(OC)c(OC)c2[nH]1` (stereo not drawn) [Compound 1], the “ILS (%)” value in the assay on P-388 tumor cells (Dose 2.4 mg/kg) turned out to be 40%; in the assay with P-388 tumor cells (Dose 7 mg/kg) it was 40%; in the assay with P-388 tumor cells (Dose 21 mg/kg), 54%. Besides, the IC50 in assay [1] is 0.06 µg/mL (≈ 0.088 µM).

With `COC(=O)C1(C)Nc2c(OS(C)(=O)=O)cc3c(c2C1=O)C(CO)CN3C(=O)c1cc2cc(OC)c(OC)c(OC)c2[nH]1` (stereo not drawn) [Compound 2], the “ILS (%)” value in the assay on P-388 tumor cells (Dose 0.25 mg/kg) turned out to be 15%; in the assay with P-388 tumor cells (Dose 0.5 mg/kg), 40%; with P-388 tumor cells (Dose 1 mg/kg) it was 40%. In assay [1], the IC50 turned out to be 0.004 µg/mL (≈ 0.00663 µM).

`COC(=O)C1(C)Nc2c(OS(=O)(=O)c3ccc(C)cc3)cc3c(c2C1=O)C(CO)CN3C(=O)c1cc2cc(OC)c(OC)c(OC)c2[nH]1` (stereo not drawn) [Compound 3]: the IC50 in assay [1] was 2.5 µg/mL (≈ 3.68 µM).

On to `COC(=O)C1(C)Nc2c(O)cc3c(c2C1=O)C(CCl)CN3C(=O)c1cc2cc(OC)c(OC)c(OC)c2[nH]1` (stereo not drawn) [SF2582A], for which the “therapeutic effect on infection” value in the assay on infection was “therapeutic effect on infection”.

As to `COC(=O)C1(C)Nc2c(O)cc3c(c2C1=O)CC(Cl)CN3C(=O)c1cc2cc(OC)c(OC)c(OC)c2[nH]1` (stereo not drawn) [SF2582B], the “therapeutic effect on infection” value in the assay with infection is recorded as “therapeutic effect on infection”.
